Experimental findings from ChEMBL document CHEMBL5360636, “Hyperelatolides A-D, Antineuroinflammatory Constituents with Unusual Carbon Skeletons from Hypericum elatoides” (J Nat Prod, 2023) are described below.

A word on the pIC50: it is the IC50 on a negative log10 scale, so that one unit is a factor of ten.

Structures are written as SMILES. pIC50: −log10 of the molar value.

The test system of data set [1] is BV-2. In words: Antineuroinflammatory activity in LPS-induced mouse BV-2 cells assessed as inhibition of NO production by griess assay. The data set is classed as functional, cell-based. In general terms: Nitrite, measured by Griess reagent, commonly stands in for NO production.
The test system of data set [2] is BV-2. Kind of data set: Cytotoxicity against mouse BV-2 cells at 20 uM by MTT assay. It counts as toxicity, cell-based. Conditions: bv-2, 20 µM. In general terms: Tetrazolium assays rely on reduction of a dye to a coloured formazan, in cell work by metabolically active cells.
Data set [3] concerns BV-2. In words: Antineuroinflammatory activity in LPS-induced mouse BV-2 cells assessed as downregulation of iNOS protein expression by Western blot analysis. It counts as functional, cell-based. Conditions: dose 2.5-10 µM. A general note: In western blotting, separated proteins are transferred to a membrane and probed.
The subject of data set [4] is BV-2. Kind of data set: Antineuroinflammatory activity in LPS-induced mouse BV-2 cells assessed as reduction in cytoplasmic NF-kappaB protein expression by Western blot analysis. The settings on record: dose 2.5-10 µM. It counts as functional, cell-based.
Data set [5] has as its system BV-2. In words: Antineuroinflammatory activity in LPS-induced mouse BV-2 cells assessed as reduction in nuclear NF-kappaB protein expression by Western blot analysis. The data set is classed as functional, cell-based. Conditions: dose 2.5-10 µM.
Data set [6] has as its system BV-2. In words: Antineuroinflammatory activity in LPS-induced mouse BV-2 cells assessed as downregulation of COX-2 protein expression by Western blot analysis. The data set is classed as functional, cell-based. Conditions: dose 2.5-10 µM.

As for `COc1ccc2c(c1)c(CC(=O)O)c(C)n2C(=O)c1ccc(Cl)cc1` [INDOMETHACIN], in the data set with BV-2 [1], the pIC50 was 4.71.
Regarding `CC(=O)C[C@@H]1CCC(C)(C)C/C1=C/[C@H]1CC(=O)OC(C)(C)[C@@H]1OC(=O)c1ccccc1`, in the data set with BV-2 [2], the Activity entry is reported as “Non-Toxic”. In addition, in the data set on BV-2 [1], the pIC50 was 5.13.
Consider `C[C@@H]1C[C@H]2[C@@H]3CCC4=CC(=O)C=C[C@]4(C)[C@@]3(F)[C@@H](O)C[C@]2(C)[C@@]1(O)C(=O)CO` [DEXAMETHASONE], for which the pIC50 in the data set with BV-2 [1] is 5.55.
For `CC(=O)C[C@@H]1CCC(C)(C)C/C1=C/[C@H]1CC(=O)O[C@H]1C(C)(C)OC(=O)c1ccccc1`, the Activity entry in the data set with BV-2 [2] is recorded as “Non-Toxic”. Moreover, in the data set with BV-2 [1], the pIC50 was 4.83.
On to `O=c1c(O)c(-c2ccc(O)c(O)c2)oc2cc(O)cc(O)c12` [QUERCETIN], for which the pIC50 with BV-2 [1] is 5.13.
For the molecule `CC(=O)C[C@@H]1CCC(C)(C)C/C1=C/[C@H]1CC(=O)OC(C)(C)[C@H]1OC(=O)c1ccccc1`, the Activity entry is “Dose-Dependent Effect” in the data set on BV-2 [3]; “Non-Toxic” with BV-2 [2]; “Dose-Dependent Effect” in the data set with BV-2 [4]; “Dose-Dependent Effect” in the data set with BV-2 [5]; “Dose-Dependent Effect” in the data set on BV-2 [6]. In addition, in the data set on BV-2 [1], the negative logarithm of the IC50 (pIC50) was 5.24.
On to `CC(=O)C[C@@H]1CCC(C)(C)C/C1=C/C1=CC(C)(C)OC1=O`, for which the Activity entry in the data set on BV-2 [2] was “Non-Toxic”. Also, the pIC50 with BV-2 [1] is less than 4.70.
